Data on 22 compounds can be found in patent US11807644B2 (PMV Pharmaceuticals, Inc., priority 2020, dated 2023).

The assay addresses T1, recombinant His-tag Y220C p53 DBD protein (Homo sapiens, UniProt P04637, Y220C).
T1 construct: recombinant His-tag Y220C p53 DBD protein (amino acids #˜94-312)
Kind of assay: In vitro DNA binding activity assay (TR-FRET): binding of His-tag Y220C p53 DBD to biotin-labeled consensus DNA. The assay is classed as biochemical. The conditions noted are these: for Y220C SC150 (μM): SC150 = concentration to increase DNA binding by […], His-tag Y220C p53 DBD, biotin-labeled consensus DNA. (In general: Time-resolved FRET reads energy transfer from a long-lived donor to a nearby acceptor.)

As to `COc1cc(S(C)(=O)=O)ccc1NCc1nnc(-c2cc3c(N[C@@H]4CCN(C)C[C@@H]4F)cccc3n2CC(F)(F)F)s1` [Compound 62B, N-[(3S,4R)-3-fluoro-1-methylpiperidin-4-yl]-2-(5-{[(4-methanesulfonyl-2-methoxyphenyl)amino]methyl}-1,3,4-thiadiazol-2-yl)-1-(2,2,2-trifluoroethyl)-1H-indol-4-amine], the “Y220C SC150 (μM)” value was “* (* = 0 μM ≤ SC150 < 0.1 μM)”.
Still for that read-out and setting: with `CN1CC[C@@H](Nc2cccc3c2cc(-c2noc(CNC(=O)c4ccn(CC(C)(C)O)c4)n2)n3CC(F)(F)F)[C@@H](F)C1` [Compound 252B, N-{[3-(4-{[(3S,4R)-3-fluoro-1-methylpiperidin-4-yl]amino}-1-(2,2,2-trifluoroethyl)-1H-indol-2-yl)-1,2,4-oxadiazol-5-yl]methyl}-1-(2-hydroxy-2-methylpropyl)-1H-pyrrole-3-carboxamide] the entry was “* (* = 0 μM ≤ SC150 < 0.1 μM)”.
Still for that read-out and setting: to `CN1CC[C@@H](Nc2cccc3c2cc(-c2nc(CNC(=O)c4ccccc4)cs2)n3CC(F)(F)F)[C@@H](F)C1` (racemic) [Compound 90B, N-{[2-(4-{[(3S,4R)-3-fluoro-1-methylpiperidin-4-yl]amino}-1-(2,2,2-trifluoroethyl)-1H-indol-2-yl)-1,3-thiazol-4-yl]methyl}benzamide] belongs “**** (**** = 1 μM ≤ SC150 < 10 μM)”.
Still for that read-out and setting: to `CN1CCC(Nc2cccc3c2cc(-c2noc(CNC(=O)C4CC4)n2)n3CC(F)(F)F)C1` (racemic) [Compound 169B, (+/−)-N-[(3-{4-[(1-methylpyrrolidin-3-yl)amino]-1-(2,2,2-trifluoroethyl)-1H-indol-2-yl}-1,2,4-oxadiazol-5-yl)methyl]cyclopropanecarboxamide] belongs “* (* = 0 μM ≤ SC150 < 0.1 μM)”; to `CN1CC[C@@H](Nc2cccc3c2cc(-c2noc(CNc4ccnn4C(C)(C)C)n2)n3CC(F)(F)F)[C@@H](F)C1` [Compound 396B, 2-(5-{[(1-tert-butyl-1H-pyrazol-5-yl)amino]methyl}-1,2,4-oxadiazol-3-yl)-N-[(3S,4R)-3-fluoro-1-methylpiperidin-4-yl]-1-(2,2,2-trifluoroethyl)-1H-indol-4-amine], “** (** = 0.1 μM ≤ SC150 < 0.5 μM)”.
`CN1CC[C@@H](Nc2cccc3c2cc(-c2noc(CNc4nccc5c4cnn5C)n2)n3CC(F)(F)F)[C@@H](F)C1` [Compound 452B, N-[(3S,4R)-3-fluoro-1-methylpiperidin-4-yl]-2-{5-[({1-methyl-1H-pyrazolo[^4,3-c]pyridin-4-yl}amino)methyl]-1,2,4-oxadiazol-3-yl}-1-(2,2,2-trifluoroethyl)-1H-indol-4-amine]: the “Y220C SC150 (μM)” value is “* (* = 0 μM ≤ SC150 < 0.1 μM)”.
On to `CN1CC[C@@H](Nc2cccc3c2cc(-c2noc(CN(C)c4cn[nH]c4)n2)n3CC(F)(F)F)[C@@H](F)C1` (racemic) [Compound 192B, (+/−)-N-[(3R,4S)-3-fluoro-1-methylpiperidin-4-yl]-2-(5-{[methyl(1H-pyrazol-4-yl)amino]methyl}-1,2,4-oxadiazol-3-yl)-1-(2,2,2-trifluoroethyl)-1H-indol-4-amine], for which the “Y220C SC150 (μM)” value was “* (* = 0 μM ≤ SC150 < 0.1 μM)”.
Same read-out and setting: with `CN1CC[C@@H](Nc2cccc3c2cc(-c2noc(CNC(=O)c4ccc(C(C)(C)C)[nH]4)n2)n3CC(F)(F)F)[C@@H](F)C1` [Compound 524B, 5-tert-butyl-N-{[3-(4-{[(3S,4R)-3-fluoro-1-methylpiperidin-4-yl]amino}-1-(2,2,2-trifluoroethyl)-1H-indol-2-yl)-1,2,4-oxadiazol-5-yl]methyl}-1H-pyrrole-2-carboxamide] the entry was “* (* = 0 μM ≤ SC150 < 0.1 μM)”; with `CN1CC[C@@H](Nc2cccc3c2cc(-c2ncc(CN)s2)n3CC(F)(F)F)[C@@H](F)C1` (racemic) [Compound 96B, (+/−)-2-[5-(aminomethyl)-1,3-thiazol-2-yl]-N-[(3R,4S)-3-fluoro-1-methylpiperidin-4-yl]-1-(2,2,2-trifluoroethyl)-1H-indol-4-amine], “**** (**** = 1 μM ≤ SC150 < 10 μM)”; with `CN1CCC(Nc2cccc3c2cc(-c2nnc(CNC(=O)c4cccc(F)c4)s2)n3CC(F)(F)F)CC1` [Compound 51B, 3-fluoro-N-[(5-{4-[(1-methylpiperidin-4-yl)amino]-1-(2,2,2-trifluoroethyl)-1H-indol-2-yl}-1,3,4-thiadiazol-2-yl)methyl]benzamide], “* (* = 0 μM ≤ SC150 < 0.1 μM)”.
On the same count and under the same terms, with `CC(C)(C)n1ccc(C(=O)NCc2nc(-c3cc4c(N[C@@H]5CCC(=O)NC5)cccc4n3CC(F)(F)F)no2)c1` [Compound 367B, 1-tert-butyl-N-{[3-(4-{[(3R)-6-oxopiperidin-3-yl]amino}-1-(2,2,2-trifluoroethyl)-1H-indol-2-yl)-1,2,4-oxadiazol-5-yl]methyl}-1H-pyrrole-3-carboxamide] the entry was “* (* = 0 μM ≤ SC150 < 0.1 μM)”.
On the same count and under the same terms, with `CN1CCC(Nc2cccc3c2cc(-c2nnc(CNC(=O)c4ccc(F)cc4)s2)n3CC(F)(F)F)CC1` [Compound 52B, 4-fluoro-N-[(5-{4-[(1-methylpiperidin-4-yl)amino]-1-(2,2,2-trifluoroethyl)-1H-indol-2-yl}-1,3,4-thiadiazol-2-yl)methyl]benzamide] the entry was “* (* = 0 μM ≤ SC150 < 0.1 μM)”; with `CC(C)(C)n1cc(C(=O)NCc2nc(-c3cc4c(N[C@@H]5CCCC[C@@H]5F)cccc4n3CC(F)(F)F)no2)cn1` [Compound 331B, 1-tert-butyl-N-{[3-(4-{[(1R,2S)-2-fluorocyclohexyl]amino}-1-(2,2,2-trifluoroethyl)-1H-indol-2-yl)-1,2,4-oxadiazol-5-yl]methyl}-1H-pyrazole-4-carboxamide], “* (* = 0 μM ≤ SC150 < 0.1 μM)”; with `CCN1CCC(Nc2cccc3c2cc(-c2noc(CNC(=O)C4CC4)n2)n3CC(F)(F)F)CC1` [Compound 168B, N-[(3-{4-[(1-ethylpiperidin-4-yl)amino]-1-(2,2,2-trifluoroethyl)-1H-indol-2-yl}-1,2,4-oxadiazol-5-yl)methyl]cyclopropanecarboxamide], “* (* = 0 μM ≤ SC150 < 0.1 μM)”.
With `CCn1ccc(C(=O)NCc2nc(-c3cc4c(N[C@@H]5CCN(C)C[C@@H]5F)cccc4n3CC(F)(F)F)no2)c1` (racemic) [Compound 179B, (+/−)-1-ethyl-N-{[3-(4-{[(3R,4S)-3-fluoro-1-methylpiperidin-4-yl]amino}-1-(2,2,2-trifluoroethyl)-1H-indol-2-yl)-1,2,4-oxadiazol-5-yl]methyl}-1H-pyrrole-3-carboxamide], the “Y220C SC150 (μM)” value is reported as “* (* = 0 μM ≤ SC150 < 0.1 μM)”.
In the case of `CN1CC[C@@H](Nc2cccc3c2cc(-c2noc(CNC(=O)c4ccc5cc[nH]c5c4)n2)n3CC(F)(F)F)[C@@H](F)C1` [Compound 267B, N-{[3-(4-{[(3S,4R)-3-fluoro-1-methylpiperidin-4-yl]amino}-1-(2,2,2-trifluoroethyl)-1H-indol-2-yl)-1,2,4-oxadiazol-5-yl]methyl}-1H-indole-6-carboxamide], the “Y220C SC150 (μM)” value is “* (* = 0 μM ≤ SC150 < 0.1 μM)”.
For the compound `CN1CC[C@@H](Nc2cccc3c2cc(-c2noc(CNC(=O)[C@@H]4C[C@H]4c4ccccn4)n2)n3CC(F)(F)F)[C@@H](F)C1` [Compound 226B, (1R,2R)-N-{[3-(4-{[(3S,4R)-3-fluoro-1-methylpiperidin-4-yl]amino}-1-(2,2,2-trifluoroethyl)-1H-indol-2-yl)-1,2,4-oxadiazol-5-yl]methyl}-2-(pyridin-2-yl)cyclopropane-1-carboxamide], the “Y220C SC150 (μM)” value was “* (* = 0 μM ≤ SC150 < 0.1 μM)”.
As to `CC1(n2ccc(C(=O)NCc3nc(-c4cc5c(N[C@H]6CCNC[C@H]6F)cccc5n4CC(F)(F)F)no3)c2)CCOCC1` [Compound 478B, N-{[3-(4-{[(3R,4S)-3-fluoropiperidin-4-yl]amino}-1-(2,2,2-trifluoroethyl)-1H-indol-2-yl)-1,2,4-oxadiazol-5-yl]methyl}-1-(4-methyloxan-4-yl)-1H-pyrrole-3-carboxamide], the “Y220C SC150 (μM)” value is listed as “* (* = 0 μM ≤ SC150 < 0.1 μM)”.
The same measure, in the same setting: to `CN1CCC(Nc2cccc3c2cc(-c2noc(CNC(=O)c4ccn(C)c4)n2)n3CC(F)(F)F)CC1` [Compound 152B, 1-methyl-N-[(3-{4-[(1-methylpiperidin-4-yl)amino]-1-(2,2,2-trifluoroethyl)-1H-indol-2-yl}-1,2,4-oxadiazol-5-yl)methyl]-1H-pyrrole-3-carboxamide] belongs “* (* = 0 μM ≤ SC150 < 0.1 μM)”.
On the same count and under the same terms, to `CN1CC[C@@H](Nc2cccc3c2cc(-c2noc(CNC(=O)c4cn(C)nn4)n2)n3CC(F)(F)F)[C@@H](F)C1` [Compound 236B, N-{[3-(4-{[(3S,4R)-3-fluoro-1-methylpiperidin-4-yl]amino}-1-(2,2,2-trifluoroethyl)-1H-indol-2-yl)-1,2,4-oxadiazol-5-yl]methyl}-1-methyl-1H-1,2,3-triazole-4-carboxamide] belongs “* (* = 0 μM ≤ SC150 < 0.1 μM)”.
Still for that read-out and setting: to `CN1CC[C@@H](Nc2cccc3c2cc(-c2noc(CNC(=O)c4ccn(C5(C)CCOCC5)c4)n2)n3CC(F)(F)F)[C@@H](F)C1` [Compound 371B, N-{[3-(4-{[(3S,4R)-3-fluoro-1-methylpiperidin-4-yl]amino}-1-(2,2,2-trifluoroethyl)-1H-indol-2-yl)-1,2,4-oxadiazol-5-yl]methyl}-1-(4-methyloxan-4-yl)-1H-pyrrole-3-carboxamide] belongs “* (* = 0 μM ≤ SC150 < 0.1 μM)”.
With `COc1cc(S(C)(=O)=O)ccc1NCc1ccc(-c2cc3c(N[C@H]4CCN(C)C[C@H]4F)cccc3n2CC(F)(F)F)cc1` (racemic) [Compound 43A, (+/−)-N-[(3R,4S)-3-fluoro-1-methylpiperidin-4-yl]-2-(4-{[(4-methanesulfonyl-2-methoxyphenyl)amino]methyl}phenyl)-1-(2,2,2-trifluoroethyl)-1H-indol-4-amine], the “SC150 (μM)” value (concentration to increase DNA binding by […], incubated at either 27° C. or 29° C. for 60 min) is given as “+ (+ = 0 μM ≤ SC150 < 2 μM)”.
